# US6713628B2, “Process for preparing pharmacologically acceptable salt of N-(1(S)-ethoxycarbonyl-3-phenylpropyl)-L-alanyl-amino acid” (Kaneka Corporation, priority 1997, dated 2004)
# Legend:
# Format in all cases: physicochemical
# [1] = Formation of diketopiperazine derivative (3) from enalapril maleate in ethyl acetate containing 0.1% water or in H2O, 60° C., 6 hours, HPLC (Example 9); conditions: 16% by weight
# Procedure: (§1) The HPLC analysis was carried out under the following conditions:
# According to Example 1, N-(1(S)-ethoxycarbonyl-3-phenylpropyl)-L-alanyl-L-proline maleate was prepared. Thereto was added ethyl acetate containing 0.1% water or H2O to prepare a solution having a concentration of 16% by weight, and the solution was warmed to 60° C. and stirred for 6 hours. The amount produced of the diketopiperazine derivative (3) was analyzed with HPLC, and the relation between water content and the average increase in the diketopiperazine derivative (3) per hour was investigated.
# [2] = Formation of diketopiperazine derivative (3) from enalapril in ethyl acetate of given water content or in water, 30° C., 6 hours, HPLC (Example 8); conditions: about 13% by weight solution
# Procedure: as §1
# According to Example 1, an ethyl acetate solution of N-(1(S)-ethoxycarbonyl-3-phenylpropyl)-L-alanyl-L-proline was prepared. 129.40 Grams of this organic phase was washed twice with 30 ml of saturated brine, and dehydrated with magnesium sulfate. The solvent was concentrated and, then, the concentrated liquid was dried under reduced pressure to obtain an oily reaction product. This product was dissolved in ethyl acetate having a water content shown in Table 3 or water to prepare a solution having a concentration of about 13% by weight, and the solution was warmed to 30° C. and stirred for 6 hours. The amount produced of the diketopiperazine derivative (3) was analyzed with HPLC, and the relation between water content and the average increase in the diketopiperazine derivative (3) per hour was investigated. The molar ratio in Table 3 means mol number of water per 1 mol of N-(1(S)-ethoxycarbonyl-3-phenylpropyl)-L-alanyl-L-proline.
# [3] = Partition of enalapril between ethyl acetate and water against temperature, HPLC (Example 11); conditions: ethyl acetate solution + H2O 10% by volume
# Procedure: as §1
# According to Example 1, an ethyl acetate solution of N-(1(S)-ethoxycarbonyl-3-phenylpropyl)-L-alanyl-L-proline was prepared. To 50 ml of the ethyl acetate solution was added H2O in an amount of 10% by volume (based on ethyl acetate). The mixture was stirred for 10 minutes at each temperature shown in Table 6, and allowed to stand still for 10 minutes and, then, separated. The amount of N-(1(S)-ethoxycarbonyl-3-phenylpropyl)-L-alanyl-L-proline in the water-saturated organic phase was analyzed with HPLC, and the relation between the temperature and the partition ratio to the organic phase was investigated.
# [4] = Formation of diketopiperazine derivative (3) from the Example 10 oil in ethyl acetate of given water content, 10° C., 6 hours, HPLC (Example 10); conditions: about 12% by weight solution
# Procedure: as §1
# To 5.00 g (28.2 mmol) of 1,2,3,4-tetrahydroisoquinoline-3-carboxylic acid were added 20 ml of ethyl acetate and 10 ml of H2O and, then, the pH was adjusted to 10.5 with 30% by weight NaOH aqueous solution. The inner temperature was regulated to 20° C. and, then, 4.31 g (14.1 mmol) of a crystal of N-(1(S)-ethoxycarbonyl-3-phenylpropyl)-L-alanine.N-carboxyanhydride was slowly added over 5 hours with stirring. During the addition, the reaction mixture was maintained at a pH of 10.5±1.0 with adding dropwise 30% by weight NaOH aqueous solution, and simultaneously, the inner temperature was maintained at 20° C. and the agitating power was maintained at 1.3 kW/m^3. After completion of the addition, the stirring was continued for 2 hour under the same conditions. The mixture was cooled to 5° C., and the pH thereof was adjusted to 4.5±0.2 with 35% by weight HCl. Then, under the same conditions, the stirring was continued for 10 minutes to complete the decarboxylation. The deposited material was removed by filtration under reduced pressure, and the organic phase was separated at 5° C. and the water phase was further extracted once with 20 ml of ethyl acetate at 10° C. The resulting organic phases were mixed and then washed three times with H2O in an amount of 5% by volume of the organic phase at 5° C. The organic phase was concentrated under reduced pressure to obtain 6.43 g of an oil. The oil was dissolved in ethyl acetate having a water content shown in Table 5 to prepare a solution having a concentration of about 12% by weight, and the resulting solution was stirred for 6 hours at 10° C. The amount produced of the diketopiperazine derivative (3) was analyzed with HPLC, and the relation between water content and the average increase in the diketopiperazine derivative (3) per hour was investigated.
smiles,measurement,setting,value
CCOC(=O)[C@H](CCc1ccccc1)N[C@@H](C)C(=O)N1CCC[C@H]1C(=O)O.O=C(O)/C=C\C(=O)O [N-(1(S)-ethoxycarbonyl-3-phenylpropyl)-L-alanyl-L-proline maleate],Average increase per hour of diketopiperazine derivative (3),[1]; H2O,0.06 % by weight/hr
same,Average increase per hour of diketopiperazine derivative (3),[1]; ethyl acetate containing 0.1% water,0.55 % by weight/hr
CCOC(=O)[C@H](CCc1ccccc1)N[C@@H](C)C(=O)N1CCC[C@H]1C(=O)O [N-(1(S)-ethoxycarbonyl-3-phenylpropyl)-L-alanyl-L-proline],Average increase per hour of diketopiperazine derivative (3),"[2]; ethyl acetate, water content 0.1% by weight (molar ratio 0.1)",2.85 % by weight/hr
same,Average increase per hour of diketopiperazine derivative (3),"[2]; ethyl acetate, water content 0.4% by weight (molar ratio 0.6)",2.06 % by weight/hr
same,Average increase per hour of diketopiperazine derivative (3),"[2]; ethyl acetate, water content 1.1% by weight (molar ratio 1.6)",1.32 % by weight/hr
same,Average increase per hour of diketopiperazine derivative (3),"[2]; ethyl acetate, water content 2.1% by weight (molar ratio 3.1)",0.99 % by weight/hr
same,Average increase per hour of diketopiperazine derivative (3),"[2]; ethyl acetate, water content 3.8% by weight (molar ratio 6.1)",0.48 % by weight/hr
same,Average increase per hour of diketopiperazine derivative (3),"[2]; ethyl acetate, water content 5.1% by weight (molar ratio 8.2)",0.39 % by weight/hr
same,Average increase per hour of diketopiperazine derivative (3),"[2]; water, water content 100% by weight (molar ratio 160)",0.02 % by weight/hr
same,Partition ratio to organic phase,[3]; 5° C.,26%
same,Partition ratio to organic phase,[3]; 10° C.,35%
same,Partition ratio to organic phase,[3]; 20° C.,57%
same,Partition ratio to organic phase,[3]; 25° C.,72%
same,Partition ratio to organic phase,[3]; 30° C.,88%
same,Partition ratio to organic phase,[3]; 40° C.,94%
CCOC(=O)[C@H](CCc1ccccc1)N[C@@H](C)C(=O)N1Cc2ccccc2C[C@H]1C(=O)O [Example 10],Average increase per hour of diketopiperazine derivative (3),[4]; water content 0.1% by weight,5.3 % by weight/hr
same,Average increase per hour of diketopiperazine derivative (3),[4]; water content 1.0% by weight,2.2 % by weight/hr
same,Average increase per hour of diketopiperazine derivative (3),[4]; water content 2.1% by weight,1.7 % by weight/hr
same,Average increase per hour of diketopiperazine derivative (3),[4]; water content 3.8% by weight,1.3 % by weight/hr
